Assay results from patent US20250115620A1, “BRIDGED TRICYCLIC CARBAMOYLPYRIDONE COMPOUNDS AND USES THEREOF” (Gilead Sciences, Inc., priority 2022, published 2025).
Read-outs that look alike come from different tables or passages of the source.

What was measured:
HIV-1 (IIIB) = experiment: microbe, parasite or virus in culture; type: cell-based; conditions: Human immunodeficiency virus 1, IIIB, MT4, 120 h, read-out: MT4 EC50
Procedure: Compounds were tested in a high-throughput 384-well assay format for their ability to inhibit the replication of HIV-1 (IIIB) in MT-4 cells. Compounds were serially diluted (1:3) in DMSO on 384-well polypropylene plates and further diluted 200-fold into complete RPMI media (10% FBS, 1% P/S) using the Biotek Micro Flow and Labcyte ECHO acoustic dispenser. Each plate contained up to 8 test compounds, with negative (No Drug Control) and 5 μM AZT positive controls. MT-4 cells were pre-infected with 10 μL of either RPMI (mock-infected) or a fresh 1:250 dilution of HIV-1 IIIB concentrated virus stock. Infected and uninfected MT-4 cells were further diluted in complete RPMI media and added to each plate using a Micro Flow dispenser. After 5 days incubation in a humidified and temperature controlled incubator (37° C.), Cell Titer Glo (Promega) was added to the assay plates and chemiluminescence read using an Envision plate-reader.

pLAI reporter virus = experiment: microbe, parasite or virus in culture; type: cell-based, HIV; conditions: Human immunodeficiency virus 1, MT4, 72 h
in vitro = conditions: human, uninfected MT-4 cells
[1] = HIV-1 (IIIB) in MT-4 cells, 5 days incubation, Cell Titer Glo

Which results are given for `C[C@H]1CC[C@]2(CC(c3cccnc3)=NO2)[C@H]2CN1C(=O)c1c(O)c(=O)c(C(=O)NCc3ccc(F)cc3F)cn12` [Example 14, (3′S,5S,7′R)—N-(2,4-difluorobenzyl)-12′-hydroxy-3′-methyl-1′,11′-dioxo-3-(pyridin-3-yl)-1′,4′,5′,11′-tetrahydro-3′H,4H,7′H-spiro[isoxazole-5,6′-[2,7]methanopyrido[1,2-a][1,4]diazonine]-10′-carboxamide]?
EC50 (HIV-1 (IIIB); [1]): 1.6 nM; EC50 (pLAI reporter virus; read-out: RLUC 50% HS EC50): 4.1 nM; EC50 (pLAI reporter virus; read-out: RLUC CCM EC50): 0.8 nM; CC50 at 5 days (in vitro): 16700 nM

For `C[C@H]1CC[C@]2(CC=NO2)[C@H]2CN1C(=O)c1c(O)c(=O)c(C(=O)NCc3c(F)cc(F)cc3F)cn12` [Example 72, (3′S,5S,7′R)-12′-hydroxy-3′-methyl-1′,11′-dioxo-N-(2,4,6-trifluorobenzyl)-1′,4′,5′,11′-tetrahydro-3′H,4H,7′H-spiro[isoxazole-5,6′-[2,7]methanopyrido[1,2-a][1,4]diazonine]-10′-carboxamide], which EC50 (HIV-1 (IIIB); [1]) is on record?
The EC50 was 1.2 nM.

What about the EC50 (pLAI reporter virus; read-out: RLUC 50% HS EC50) of the same compound?
Its EC50 is 108 nM.

And the EC50 (pLAI reporter virus; read-out: RLUC CCM EC50)?
Its EC50 is 0.3 nM.

And the CC50 at 5 days (in vitro)?
The CC50 at 5 days was 31900 nM.

For `CC1=NO[C@@]2(CC[C@H](C)N3C[C@H]2n2cc(C(=O)NCc4ccc(F)c(Cl)c4F)c(=O)c(O)c2C3=O)C1` [Example 6, (3′S,5S,7′R)—N-(3-chloro-2,4-difluorobenzyl)-12′-hydroxy-3,3′-dimethyl-1′,11′-dioxo-1′,4′,5′,11′-tetrahydro-3′H,4H,7′H-spiro[isoxazole-5,6′-[2,7]methanopyrido[1,2-a][1,4]diazonine]-10′-carboxamide], which EC50 (HIV-1 (IIIB); [1]) is on record?
Its EC50 is 0.5 nM.

And the EC50 (pLAI reporter virus; read-out: RLUC 50% HS EC50)?
The EC50 was 543 nM.

What about the EC50 (pLAI reporter virus; read-out: RLUC CCM EC50) of the same compound?
Its EC50 is 0.2 nM.

And the CC50 at 5 days (in vitro)?
The CC50 at 5 days was 9280 nM.

With `CCCC1=NO[C@@]2(CC[C@H](C)N3C[C@H]2n2cc(C(=O)NCc4c(F)cc(F)cc4F)c(=O)c(O)c2C3=O)C1` [Example 68, (3′S,5S,7′R)-12′-hydroxy-3′-methyl-1′,11′-dioxo-3-propyl-N-(2,4,6-trifluorobenzyl)-1′,4′,5′,11′-tetrahydro-3′H,4H,7′H-spiro[isoxazole-5,6′-[2,7]methanopyrido[1,2-a][1,4]diazonine]-10′-carboxamide] as the compound, how does the EC50 (HIV-1 (IIIB); [1]) read?
Its EC50 is 1.2 nM.

And the EC50 (pLAI reporter virus; read-out: RLUC 50% HS EC50)?
The EC50 was 85.4 nM.

What about the EC50 (pLAI reporter virus; read-out: RLUC CCM EC50) of the same compound?
The EC50 was 0.3 nM.

What about the CC50 at 5 days (in vitro) of the same compound?
Its CC50 at 5 days is 15700 nM.

What does the source list for `C[C@H]1CC[C@]2(CC(=O)N(Cc3ccc4scnc4c3)O2)[C@H]2CN1C(=O)c1c(O)c(=O)c(C(=O)NCc3c(F)cc(F)cc3F)cn12` [Example 113, (3′S,5S,7′R)-2-(benzo[d]thiazol-5-ylmethyl)-12′-hydroxy-3′-methyl-1′,3,11′-trioxo-N-(2,4,6-trifluorobenzyl)-1′,4′,5′,11′-tetrahydro-3′H,7′H-spiro[isoxazolidine-5,6′-[2,7]methanopyrido[1,2-a][1,4]diazonine]-10′-carboxamide]?
EC50 (HIV-1 (IIIB); [1]): 0.7 nM; EC50 (pLAI reporter virus; read-out: RLUC 50% HS EC50): 0.7 nM; EC50 (pLAI reporter virus; read-out: RLUC CCM EC50): 0.1 nM; CC50 at 5 days (in vitro): ≥ 50000 nM

What does the source list for `C[C@H]1CC[C@]2(CC(=O)N(Cc3cccnc3)O2)[C@H]2CN1C(=O)c1c(O)c(=O)c(C(=O)NCc3c(F)cc(F)cc3F)cn12` [Example 160, (3′S,5S,7′R)-12′-hydroxy-3′-methyl-1′,3,11′-trioxo-2-(pyridin-3-ylmethyl)-N-(2,4,6-trifluorobenzyl)-1′,4′,5′,11′-tetrahydro-3′H,7′H-spiro[isoxazolidine-5,6′-[2,7]methanopyrido[1,2-a][1,4]diazonine]-10′-carboxamide]?
EC50 (HIV-1 (IIIB); [1]): 1.5 nM; EC50 (pLAI reporter virus; read-out: RLUC 50% HS EC50): 0.5 nM; EC50 (pLAI reporter virus; read-out: RLUC CCM EC50): 1.6 nM; CC50 at 5 days (in vitro): ≥ 50000 nM

What does the source list for `CC1=NO[C@]2(C1)C[C@H](F)[C@H](C)N1C[C@H]2n2cc(C(=O)NCc3ccc(F)cc3F)c(=O)c(O)c2C1=O` [Example 5, (3′S,4′S,5R,7′R)—N-(2,4-difluorobenzyl)-4′-fluoro-12′-hydroxy-3,3′-dimethyl-1′,11′-dioxo-1′,4′,5′,11′-tetrahydro-3′H,4H,7′H-spiro[isoxazole-5,6′-[2,7]methanopyrido[1,2-a][1,4]diazonine]-10′-carboxamide]?
EC50 (HIV-1 (IIIB); [1]): 1.6 nM; EC50 (pLAI reporter virus; read-out: RLUC 50% HS EC50): 27.4 nM; EC50 (pLAI reporter virus; read-out: RLUC CCM EC50): 0.4 nM; CC50 at 5 days (in vitro): 25800 nM

Which EC50 (HIV-1 (IIIB); [1]) does the source give for `C[C@H]1CC[C@]2(CC(=O)N(Cc3nc4ccccc4[nH]3)O2)[C@H]2CN1C(=O)c1c(O)c(=O)c(C(=O)NCc3c(F)cc(F)cc3F)cn12` [Example 162, (3′S,5S,7′R)-2-((1H-benzo[d]imidazol-2-yl)methyl)-12′-hydroxy-3′-methyl-1′,3,11′-trioxo-N-(2,4,6-trifluorobenzyl)-1′,4′,5′,11′-tetrahydro-3′H,7′H-spiro[isoxazolidine-5,6′-[2,7]methanopyrido[1,2-a][1,4]diazonine]-10′-carboxamide] here?
Its EC50 is 3.6 nM.

And the EC50 (pLAI reporter virus; read-out: RLUC 50% HS EC50)?
The EC50 was 5.7 nM.

And the EC50 (pLAI reporter virus; read-out: RLUC CCM EC50)?
The EC50 was 1.4 nM.

And the CC50 at 5 days (in vitro)?
Its CC50 at 5 days is no less than 50000 nM.

Which EC50 (HIV-1 (IIIB); [1]) does the source give for `C[C@H]1CC[C@]2(CCC(=O)N2)[C@H]2CN1C(=O)c1c(O)c(=O)c(C(=O)NCc3c(F)cc(F)cc3F)cn12` [Example 121, (2S,3′S,7′R)-12′-hydroxy-3′-methyl-1′,5,11′-trioxo-N-(2,4,6-trifluorobenzyl)-1′,4′,5′,11′-tetrahydro-3′H,7′H-spiro[pyrrolidine-2,6′-[2,7]methanopyrido[1,2-a][1,4]diazonine]-10′-carboxamide] here?
Its EC50 is 86.5 nM.

What about the EC50 (pLAI reporter virus; read-out: RLUC 50% HS EC50) of the same compound?
The EC50 was 19.9 nM.

And the EC50 (pLAI reporter virus; read-out: RLUC CCM EC50)?
Its EC50 is 16.9 nM.

What about the CC50 at 5 days (in vitro) of the same compound?
Its CC50 at 5 days is no less than 50000 nM.

With `C[C@H]1CC[C@]2(CC(Cl)=NO2)[C@H]2CN1C(=O)c1c(O)c(=O)c(C(=O)NCc3c(F)cc(F)cc3F)cn12` [Example 53, (3′S,5S,7′R)-3-chloro-12′-hydroxy-3′-methyl-1′,11′-dioxo-N-(2,4,6-trifluorobenzyl)-1′,4′,5′,11′-tetrahydro-3′H,4H,7′H-spiro[isoxazole-5,6′-[2,7]methanopyrido[1,2-a][1,4]diazonine]-10′-carboxamide] as the compound, how does the EC50 (HIV-1 (IIIB)) read?
Its EC50 is 1.7 nM.

What about the EC50 (pLAI reporter virus; read-out: RLUC 50% HS EC50) of the same compound?
The EC50 was 166 nM.

And the EC50 (pLAI reporter virus; read-out: RLUC CCM EC50)?
Its EC50 is 0.3 nM.

What about the CC50 at 5 days (in vitro) of the same compound?
Its CC50 at 5 days is 9470 nM.

For `C[C@H]1CC[C@]2(CC(OCC(F)F)=NO2)[C@H]2CN1C(=O)c1c(O)c(=O)c(C(=O)NCc3ccc(F)cc3F)cn12` [Example 47, (3′S,5S,7′R)—N-(2,4-difluorobenzyl)-3-(2,2-difluoroethoxy)-12′-hydroxy-3′-methyl-1′,11′-dioxo-1′,4′,5′,11′-tetrahydro-3′H,4H,7′H-spiro[isoxazole-5,6′-[2,7]methanopyrido[1,2-a][1,4]diazonine]-10′-carboxamide], which EC50 (HIV-1 (IIIB); [1]) is on record?
Its EC50 is 1.8 nM.

What about the EC50 (pLAI reporter virus; read-out: RLUC 50% HS EC50) of the same compound?
Its EC50 is 6.5 nM.

What about the EC50 (pLAI reporter virus; read-out: RLUC CCM EC50) of the same compound?
The EC50 was 0.5 nM.

What about the CC50 at 5 days (in vitro) of the same compound?
Its CC50 at 5 days is 27500 nM.

For `C[C@H]1CC[C@@]2(CC(C#CC(C)(C)S(C)(=O)=O)=NO2)[C@H]2CN1C(=O)c1c(O)c(=O)c(C(=O)NCc3c(F)cc(F)cc3F)cn12` [Example 80, (3′S,5R,7′R)-12′-hydroxy-3′-methyl-3-(3-methyl-3-(methylsulfonyl)but-1-yn-1-yl)-1′,11′-dioxo-N-(2,4,6-trifluorobenzyl)-1′,4′,5′,11′-tetrahydro-3′H,4H,7′H-spiro[isoxazole-5,6′-[2,7]methanopyrido[1,2-a][1,4]diazonine]-10′-carboxamide], which EC50 (HIV-1 (IIIB); [1]) is on record?
The EC50 was 81.5 nM.

What about the EC50 (pLAI reporter virus; read-out: RLUC 50% HS EC50) of the same compound?
The EC50 was 30.1 nM.

What about the EC50 (pLAI reporter virus; read-out: RLUC CCM EC50) of the same compound?
Its EC50 is 15.7 nM.

And the CC50 at 5 days (in vitro)?
Its CC50 at 5 days is no less than 50000 nM.

Which results are given for `CC1=NO[C@@]2(CC[C@H](C)N3C[C@H]2n2cc(C(=O)NCc4ccc(F)cc4F)c(=O)c(O)c2C3=O)[C@@H]1F` (single isomer, unassigned) [Example 27 (peak 2)]?
EC50 (HIV-1 (IIIB); [1]): 0.6 nM; EC50 (pLAI reporter virus; read-out: RLUC 50% HS EC50): 160 nM; EC50 (pLAI reporter virus; read-out: RLUC CCM EC50): 0.3 nM; CC50 at 5 days (in vitro): 45600 nM
